Measurements published in ChEMBL document CHEMBL4265969, “Design, synthesis and biological evaluation of (2S,3R,4R,5S,6R)-5-fluoro-6-(hydroxymethyl)-2-aryltetrahydro-2H-pyran-3,4-diols as potent and orally active SGLT dual inhibitors” (Bioorg Med Chem Lett, 2018).
Active and inactive are the calls of the source. The calls are words filed in the database; no cut-off is given here.

Key:
[1] = Oral bioavailability in Sprague-Dawley rat at 10 mg/kg; format: ADME, organism-based; settings: in vivo
[2] = Cmax in Sprague-Dawley rat at 10 mg/kg, po; format: ADME, organism-based; design: dose 10 mg/kg, route oral; settings: in vivo
[3] = Half life in dog hepatocytes at 1 uM; format: ADME, cell-based, Canis lupus familiaris, Hepatocyte
[4] = target: T1, Sodium/glucose cotransporter 2 (Rattus norvegicus, UniProt P53792); assay: Inhibition of rat SGLT2 expressed in CHOK1 cells assessed as reduction in Na-dependent [14C]-AMG uptake preincubated for 10 mins followed by [14C]-AMG addition measured after 2 hrs by TopCount method; format: cell-based
T1 sequence (P53792 whole entry): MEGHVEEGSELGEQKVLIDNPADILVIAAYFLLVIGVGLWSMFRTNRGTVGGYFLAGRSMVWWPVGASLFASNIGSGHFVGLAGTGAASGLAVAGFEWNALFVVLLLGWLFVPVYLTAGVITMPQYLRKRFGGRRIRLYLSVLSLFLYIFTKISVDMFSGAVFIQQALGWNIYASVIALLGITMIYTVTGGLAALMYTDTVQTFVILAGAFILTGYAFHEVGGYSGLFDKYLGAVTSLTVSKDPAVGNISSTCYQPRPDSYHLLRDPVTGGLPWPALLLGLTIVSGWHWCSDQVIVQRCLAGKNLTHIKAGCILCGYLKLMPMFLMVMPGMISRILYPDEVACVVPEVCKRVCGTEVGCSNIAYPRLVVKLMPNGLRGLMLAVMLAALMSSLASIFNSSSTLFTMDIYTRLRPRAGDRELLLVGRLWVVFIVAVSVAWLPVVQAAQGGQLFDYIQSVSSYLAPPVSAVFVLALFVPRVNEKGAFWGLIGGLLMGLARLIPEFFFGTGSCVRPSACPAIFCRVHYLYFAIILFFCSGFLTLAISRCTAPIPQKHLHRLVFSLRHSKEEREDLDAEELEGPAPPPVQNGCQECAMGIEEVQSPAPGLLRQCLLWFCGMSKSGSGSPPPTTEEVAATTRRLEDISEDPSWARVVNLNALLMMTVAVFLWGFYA

[5] = Half life in human hepatocytes at 1 uM; format: ADME, cell-based, Hepatocyte
[6] = Half life in Sprague-Dawley rat at 10 mg/kg, po; format: ADME, organism-based; settings: in vivo
Rattus norvegicus [7] = assay: Antidiabetic activity in Sprague-Dawley rat assessed as decrease in postprandial blood glucose level administered orally 1 hr prior to glucose challenge measured up to 120 mins by OGTT; format: functional, organism-based
[8] = Clearance in Sprague-Dawley rat at 2 mg/kg, iv; format: ADME, organism-based; settings: in vivo
Mus musculus [9] = assay: Anti-hyperglycemic effect in db/db mouse assessed as decrease in fed blood glucose AUC at 10 mg/kg, po measured up to 24 hrs relative to control; format: functional; design: scale not given: the % may be the effect or the level left
[10] = Volume of distribution at steady state in cynomolgus monkey at 2 mg/kg, iv; format: ADME, organism-based, Macaca fascicularis; settings: in vivo, read-out: Vdss
[11] = Half life in monkey hepatocytes at 1 uM; format: ADME, cell-based, Macaca mulatta, Hepatocyte; settings: rhesus monkey
[12] = Metabolic stability in mouse liver microsomes at 1 uM after 10 mins in presence of NADPH; format: ADME, microsome; settings: read-out: Stability
[13] = Half life in Sprague-Dawley rat at 2 mg/kg, iv; format: ADME, organism-based; settings: in vivo
[14] = target: Voltage-gated inwardly rectifying potassium channel KCNH2 (Homo sapiens, UniProt Q12809); assay: Inhibition of human ERG at 50 uM
Voltage-gated inwardly rectifying potassium channel KCNH2, sequence (Q12809 whole entry): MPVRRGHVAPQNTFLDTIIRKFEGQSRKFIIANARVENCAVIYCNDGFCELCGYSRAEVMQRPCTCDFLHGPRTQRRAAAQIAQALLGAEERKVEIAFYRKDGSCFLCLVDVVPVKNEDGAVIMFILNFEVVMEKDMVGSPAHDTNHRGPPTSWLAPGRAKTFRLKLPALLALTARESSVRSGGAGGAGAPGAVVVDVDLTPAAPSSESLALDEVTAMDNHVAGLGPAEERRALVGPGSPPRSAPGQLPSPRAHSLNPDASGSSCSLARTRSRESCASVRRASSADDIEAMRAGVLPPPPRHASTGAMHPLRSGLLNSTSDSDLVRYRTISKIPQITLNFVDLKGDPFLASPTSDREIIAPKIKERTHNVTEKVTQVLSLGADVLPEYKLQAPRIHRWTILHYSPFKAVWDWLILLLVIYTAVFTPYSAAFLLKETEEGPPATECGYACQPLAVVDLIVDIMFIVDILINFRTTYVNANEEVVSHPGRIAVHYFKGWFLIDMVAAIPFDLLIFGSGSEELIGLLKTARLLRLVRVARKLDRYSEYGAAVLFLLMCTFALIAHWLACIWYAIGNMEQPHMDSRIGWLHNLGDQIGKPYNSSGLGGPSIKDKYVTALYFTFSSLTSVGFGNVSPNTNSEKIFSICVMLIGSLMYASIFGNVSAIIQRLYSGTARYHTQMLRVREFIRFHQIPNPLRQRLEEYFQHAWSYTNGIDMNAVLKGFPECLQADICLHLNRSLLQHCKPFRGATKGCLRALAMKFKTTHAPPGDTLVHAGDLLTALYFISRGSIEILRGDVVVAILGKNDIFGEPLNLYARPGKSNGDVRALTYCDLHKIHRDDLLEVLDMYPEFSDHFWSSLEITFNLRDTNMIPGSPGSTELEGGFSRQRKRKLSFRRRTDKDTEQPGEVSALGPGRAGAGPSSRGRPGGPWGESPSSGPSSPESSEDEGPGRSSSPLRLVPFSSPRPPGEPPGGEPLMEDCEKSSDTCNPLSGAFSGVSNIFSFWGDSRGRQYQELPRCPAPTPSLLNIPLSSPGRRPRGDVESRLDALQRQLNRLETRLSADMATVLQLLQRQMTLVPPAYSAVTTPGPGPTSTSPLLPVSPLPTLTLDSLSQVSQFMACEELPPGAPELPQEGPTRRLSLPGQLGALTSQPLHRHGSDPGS

[15] = Metabolic stability in rat liver microsomes at 1 uM after 10 mins in presence of NADPH; format: ADME, microsome; settings: read-out: Stability
[16] = Tmax in cynomolgus monkey at 10 mg/kg, po; format: ADME, organism-based, Macaca fascicularis; settings: in vivo
[17] = Half life in Sprague-Dawley rat hepatocytes at 1 uM; format: ADME, cell-based, Hepatocyte
Mus musculus [18] = assay: In vivo inhibition of SGLT2 in db/db mouse assessed as increase in urine glucose excretion at 10 mg/kg, po after 24 hrs; format: functional, organism-based
[19] = Clearance in cynomolgus monkey at 2 mg/kg, iv; format: ADME, organism-based, Macaca fascicularis; settings: in vivo
[20] = Half life in cynomolgus monkey at 10 mg/kg, po; format: ADME, organism-based, Macaca fascicularis; settings: in vivo
Rattus norvegicus [21] = assay: Anti-hyperglycemic effect in ZDF rat assessed as decrease in fed blood glucose AUC at 10 mg/kg, po measured up to 24 hrs relative to control; format: functional; design: scale not given: the % may be the effect or the level left
[22] = target: T2, Sodium/glucose cotransporter 1 (Rattus norvegicus, UniProt P53790); assay: Inhibition of rat SGLT1 expressed in CHOK1 cells assessed as reduction in Na-dependent [14C]-AMG uptake preincubated for 10 mins followed by [14C]-AMG addition measured after 2 hrs by TopCount method; format: cell-based
T2 sequence (P53790 whole entry): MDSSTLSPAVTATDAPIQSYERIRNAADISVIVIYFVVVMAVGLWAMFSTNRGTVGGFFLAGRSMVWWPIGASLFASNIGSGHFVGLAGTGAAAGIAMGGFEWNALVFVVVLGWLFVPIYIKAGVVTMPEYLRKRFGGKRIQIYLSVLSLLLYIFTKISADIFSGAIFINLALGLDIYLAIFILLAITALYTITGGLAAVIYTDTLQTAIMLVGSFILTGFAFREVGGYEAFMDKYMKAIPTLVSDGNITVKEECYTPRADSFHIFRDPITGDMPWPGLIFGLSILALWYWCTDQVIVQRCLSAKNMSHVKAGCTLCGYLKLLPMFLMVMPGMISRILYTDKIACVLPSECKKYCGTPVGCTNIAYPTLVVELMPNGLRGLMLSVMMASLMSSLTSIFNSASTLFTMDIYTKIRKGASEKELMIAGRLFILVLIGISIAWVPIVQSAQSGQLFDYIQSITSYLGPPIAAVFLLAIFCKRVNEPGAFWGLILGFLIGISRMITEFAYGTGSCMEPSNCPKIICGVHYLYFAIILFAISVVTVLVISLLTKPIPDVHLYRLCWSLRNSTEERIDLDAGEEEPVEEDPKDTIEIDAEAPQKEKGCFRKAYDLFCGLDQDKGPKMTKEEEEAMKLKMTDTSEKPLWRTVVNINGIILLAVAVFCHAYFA

[23] = Oral bioavailability in cynomolgus monkey at 10 mg/kg; format: ADME, organism-based, Macaca fascicularis; settings: in vivo
[24] = AUC (0 to infinity) in cynomolgus monkey at 10 mg/kg, po; format: ADME, organism-based, Macaca fascicularis; design: dose 10 mg/kg, time infinity, route oral; settings: in vivo
Salmonella typhimurium = assay: Genotoxicity in Salmonella typhimurium TA98; format: toxicity, organism-based; settings: salmonella enterica subsp. enterica serovar typhimurium
[25] = Half life in cynomolgus monkey at 2 mg/kg, iv; format: ADME, organism-based, Macaca fascicularis; settings: in vivo
Rattus norvegicus [26] = assay: Antidiabetic activity in Sprague-Dawley rat assessed as decrease in postprandial blood glucose AUC at 1 mg/kg, po administered 1 hr prior to glucose challenge measured up to 120 mins by OGTT relative to control; format: functional; design: scale not given: the % may be the effect or the level left
[27] = Cmax in cynomolgus monkey at 10 mg/kg, po; format: ADME, organism-based, Macaca fascicularis; design: dose 10 mg/kg, route oral; settings: in vivo
[28] = AUC (0 to infinity) in Sprague-Dawley rat at 10 mg/kg, po; format: ADME, organism-based; design: dose 10 mg/kg, route oral, time infinity; settings: in vivo
[29] = Metabolic stability in human liver microsomes at 1 uM after 10 mins in presence of NADPH; format: ADME, microsome; settings: read-out: Stability
[30] = Tmax in Sprague-Dawley rat at 10 mg/kg, po; format: ADME, organism-based; settings: in vivo
[31] = Volume of distribution at steady state in Sprague-Dawley rat at 2 mg/kg, iv; format: ADME, organism-based; settings: in vivo, read-out: Vdss

For `COc1c([C@@H]2O[C@H](CO)[C@@H](F)[C@H](O)[C@H]2O)cc(Cc2ccc3c(c2)OCCO3)c2c1CCO2`, the bioavailability [1] was 48.2%, the Cmax [2] was 990 ng/mL and the half-life at 1 µM [3] was 8 h. For the same molecule, the IC50 [4] was 16 nM, the half-life at 1 µM [5] was 5.4 h and the half-life [6] was 1.44 h. For the same molecule, the Activity (Rattus norvegicus [7]) was “Dose-dependent effect”, the clearance [8] was 50.9 mL/min/kg and the Activity (Mus musculus [9]) was 57.4%. For the same molecule, the Vd [10] was 3.05 L/kg, the half-life at 1 µM [11] was 2.2 h and the remaining at 10 min, 1 µM [12] was 82%. For the same molecule, the half-life [13] was 0.41 h, the “inhibition (INH)” value [14] was “Not Active” and the remaining at 10 min, 1 µM [15] was 66%. The Tmax [16] was 1.33 h, the half-life at 1 µM [17] was 1.2 h and the inhibition (Mus musculus [18]) was “Active”. The clearance [19] was 15.5 mL/min/kg, the half-life [20] was 5.6 h and the Activity (Rattus norvegicus [21]) was 56.8%. The IC50 [22] was 68 nM, the bioavailability [23] was 56% and the AUC(0-inf) [24] was 6090 ng·h/mL. For the same molecule, the Activity (Salmonella typhimurium) was “Non-Toxic”, the half-life [25] was 7.9 h and the Activity (Rattus norvegicus [26]) was 32.4%. It also gave a Cmax [27] of 1490 ng/mL, an AUC(0-inf) [28] of 1600 ng·h/mL and a remaining at 10 min, 1 µM [29] of 95%. The Tmax [30] was 0.3 h and the Vd [31] was 1.07 L/kg.
